Test results published in PubChem BioAssay (NCI).
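Five compound concentrations were applied to cells in 96-well plates for 48 hours; endpoints were derived by simple linear interpolation of the resulting dose-response curve. Definition used: TGI = concentration required for complete inhibition of growth.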

Columns and labels:
Assay in all cases: inhibition of tumour cell growth, NCI panel, 48 h
HCC-2998 colon = tested on: HCC-2998 colon
HCT-15 colon = tested on: HCT-15 colon
HOP-92 NSCLC = tested on: HOP-92 NSCLC
HT29 colon = tested on: HT29 colon
MDA-N = tested on: MDA-N
NCI-H460 lung = tested on: NCI-H460 lung
NCI-H522 lung = tested on: NCI-H522 lung
UACC-257 melanoma = tested on: UACC-257 melanoma
CCRF-CEM leukemia = tested on: CCRF-CEM leukemia

| SMILES | TGI (HCC-2998 colon) [µM] | TGI (HCT-15 colon) [µM] | TGI (HOP-92 NSCLC) [µM] | TGI (HT29 colon) [µM] | TGI (MDA-N) [µM] | TGI (NCI-H460 lung) [µM] | TGI (NCI-H522 lung) [µM] | TGI (UACC-257 melanoma) [µM] | TGI (CCRF-CEM leukemia) [µM] |
| --- | --- | --- | --- | --- | --- | --- | --- | --- | --- |
| COC(C/C(=C/CO[Si](C(C)C)(C(C)C)C(C)C)C(=O)N(C(=O)OC(C)(C)C)c1ccccc1I)OC | > 100 | > 100 | > 100 | > 100 | > 100 | > 100 | 18.3 | > 100 |  |
| Cc1c(C(=O)O)n2c(=S)[nH]nc2c2ccccc12 | > 100 | > 100 | > 100 | > 100 | > 100 | > 100 | > 100 | > 100 | > 100 |
| COc1cccc2c1NC(=O)Cc1c-2[nH]c2ccccc12 | > 100 | > 100 | > 100 | > 100 |  | > 100 | > 100 |  | > 100 |
| COc1cc(CC(C)=O)cc(OC)c1 | > 100 | > 100 | > 100 | > 100 | 76.9 | > 100 |  | > 100 | > 100 |
| Cc1cc2c(c(C(=O)NCC(=O)N[C@@H](C)C(=O)OCc3ccccc3)c1)Oc1c(cc(C)cc1C(=O)NCC(=O)N[C@@H](C)C(=O)OCc1ccccc1)S2 | > 100 | > 100 |  | > 100 | > 100 | > 100 |  | > 100 | > 100 |
| O=C(NC(=S)Nc1ccc([N+](=O)[O-])cc1)c1ccc2c(c1)Sc1ccccc1O2 |  | > 100 | > 100 | > 100 | > 100 | > 100 | > 100 | > 100 | > 100 |
| O=c1[nH]c(=O)c2ncn(-c3ccc([N+](=O)[O-])cn3)c2[nH]1 | > 100 | > 100 | > 100 | > 100 |  | > 100 |  | > 100 | > 100 |
| CC(=O)O[C@H]1C(=O)[C@@]2(C)[C@H]([C@H](OC(=O)c3ccccc3)[C@]3(O)C[C@H](OC(=O)[C@H](O)[C@@H](NC(=O)c4ccccc4)c4ccc5ccccc5c4)C(C)=C1C3(C)C)[C@]1(OC(C)=O)CO[C@@H]1C[C@@H]2O | 0.228 | 8.4 | > 14 | 1.96 | 0.0202 | 5.19 |  | 8.22 | > 11.2 |
| Cn1c(-c2ccc(-c3cc(-c4cccs4)c(-c4cccs4)n3C)cc2)cc(-c2cccs2)c1-c1cccs1 | > 100 | > 100 |  | > 100 | > 100 | > 100 |  | > 100 | > 100 |
| CSc1ncc2c(n1)-c1ccccc1OC2N1CCOCC1 (stereo not given) |  | > 100 | > 100 | > 100 | > 100 | > 100 | > 100 | > 100 | > 100 |
| CC(C)C(Nc1ncnc2nc[nH]c12)C(=O)O (stereo not given) |  | > 100 | > 100 | > 100 | > 100 | > 100 | > 100 | > 100 | > 100 |
| CN1CCN(C(=O)CCC(=O)Nc2cc3c(c4ccccc24)-c2ccc4ccccc4c2C3)CC1 | 2.7 | 3.68 | 3.36 | 3.23 |  | 3.72 | 3.2 | 3.24 |  |
| COc1ccc2nc3c([N+](=O)[O-])ccc(NCCN(C)C)c3c(N)c2c1 |  | 2.49 | 2.54 | 1.73 | 3.19 | 2.95 |  | 3.99 | 0.531 |
| Cc1cc2nc3c(C#N)c4c(c(Nc5ccc(F)cc5)n3c2cc1C)CCC4 |  | > 100 |  | > 100 | > 100 | > 100 | > 100 | > 100 | > 100 |
| O=C1c2ccccc2C(=O)N1n1c(Cc2ccc(Cl)cc2)n[nH]c1=O | > 100 | > 100 | > 100 | > 100 | > 100 | > 100 |  | > 100 | > 100 |
| O=C1/C(=C/c2ccc(Cl)cc2)Oc2cc(O)ccc21 | > 100 | > 100 |  |  | > 100 | 89.3 | 70.7 | 90.1 | 52 |
| Cc1cc2cc3cc(C)c(N)cc3nc2cc1N |  | 2.2 | 4.89 | 1.6 | 2.93 | 1.21 | 1.7 | 8.57 | 2.52 |
| C/C(=N\Nc1nc2cc(Cl)ccc2s1)c1ccccn1 | > 80.8 | > 79.9 | 15.4 |  | > 100 | > 100 | > 41.1 | > 100 | > 75.4 |
| CC(=O)C1=C(C)O[C@@H]2O[C@H](COCc3ccccc3)[C@@H](OCc3ccccc3)[C@H](O)[C@@H]2S1 |  | 71.6 | 44.2 | 43.2 | 51.7 | 38.9 | 30.9 | 39.7 | 16.8 |
| Nn1c(Nc2ccc(S(N)(=O)=O)cc2)nnc(/C=C/c2c(O)ccc3ccccc23)c1=O | 51.9 | 30.4 |  | 42.6 | 42 | 96.2 | 33 | 92.8 | 18.8 |
| N#Cc1c(N)oc(-c2ccc([N+](=O)[O-])cc2)c1C#N | > 100 | 53.1 | 62.9 | > 100 | > 100 |  | 60.3 | 62 | > 100 |
| O=c1cc(-c2ccccc2)[nH]c2ncccc12 | > 42 |  | 7.54 | 0.426 |  | > 52.1 | 0.702 | > 100 | > 100 |
| O[C@@H]1C[C@H](Cl)c2c(Cl)sc(Cl)c21 | > 100 | > 100 |  | > 100 | > 100 | > 100 | > 100 | > 100 | > 100 |
| COc1cc(C2c3cc4c(cc3OC(NNc3ccccc3)C2C)OCO4)cc(OC)c1OC (stereo not given) | 3.96 |  | 52.1 | 6.61 | 3.43 | 16.4 | 4.72 | > 100 | > 27.3 |
| Clc1cc(-c2ccccc2)nc(Nc2nc3ccccc3[nH]2)n1 |  | 22 | 5.25 | 45.6 | 38.7 | 93.7 | 33.1 | 44 | 27.6 |
| CN(C)Cc1c(O)ccc2c1c1c(n2C)C(=O)c2ccccc2C1=O | 13.9 | > 100 | > 100 | 5.19 |  | > 100 | 20.8 | 23.9 | > 100 |
